{
  "source": "patent US20210387954A1",
  "about": "“OXADIAZOLES AS FUNGICIDES” (PI INDUSTRIES LIMITED, priority 2018, published 2021)",
  "data": [
    {"system": "Corynespora cassicola", "experiment": "Corynespora cassicola (leaf spot of tomato) in vitro radial growth test on Potato Dextrose Agar", "format": "cell-based", "settings": "300 ppm; radial growth after seven days at 25° C., 70% relative humidity", "units": {"control compared to the untreated check": "%"}, "values": [
      {"smiles": "O=S(=O)(Nc1ccc(Cc2noc(C(F)(F)F)n2)cc1)c1ccccc1", "note": "[Compound 68, N-(4-((5-(trifluoromethyl)-1,2,4-oxadiazol-3-yl)methyl)phenyl)benzenesulfonamide]", "control compared to the untreated check": "> 70"}
    ]},
    {"system": "Phakopsora pachyrhizi", "experiment": "Phakopsora pachyrhizi test in soybean (greenhouse, preventive)", "format": "in vivo", "settings": "24 h, soybean plants sprayed one day before inoculation, read-out: control compared to the untreated check (efficacy from disease severity rating)", "experimental": "Compounds were dissolved in 2% DMSO/Acetone and then diluted with water containing emulsifier to the desired test concentration. To test the preventive activity of compounds, healthy young soybean plants, raised in the greenhouse, were sprayed with the active compound solution at the stated application rates inside spray cabinets using hallowcone nozzles. One day after treatment, the plants were inoculated with a suspension containing 2.1×10^6 Phakopsora pachyrhizi spores. The inoculated plants were then kept in the greenhouse chamber at 25° C. temperature and 90% relative humidity for disease expression. A visual assessment of the compound's performance was carried out by rating the disease severity (0-100% scale) on treated plants on 3, 7, 10 and 15 days after application. Efficacy (% control) of the compounds was calculated by comparing the disease rating in the treatment with the one of the untreated control. The treated plants were also assessed for plant compatibility by recording symptoms like necrosis, chlorosis and stunting.", "units": {"pest or weed control at 500 ppm": "%"}, "values": [
      {"smiles": "O=C(Nc1ccc(Cc2noc(C(F)(F)F)n2)cc1)c1ccccc1", "note": "[Compound 2, N-(4-((5-(trifluoromethyl)-1,2,4-oxadiazol-3-yl)methyl)phenyl)benzamide]", "pest or weed control at 500 ppm": "> 70"},
      {"smiles": "O=C(Nc1ccc(Cc2noc(C(F)(F)F)n2)cc1)c1ccccn1", "note": "[Compound 3, N-(4-((5-(trifluoromethyl)-1,2,4-oxadiazol-3-yl)methyl)phenyl)picolinamide]", "pest or weed control at 500 ppm": "> 70"},
      {"smiles": "O=C(Nc1ccc(Cc2noc(C(F)(F)F)n2)cc1)c1cccnc1", "note": "[Compound 4, N-(4-((5-(trifluoromethyl)-1,2,4-oxadiazol-3-yl)methyl)phenyl)nicotinamide]", "pest or weed control at 500 ppm": "> 70"},
      {"smiles": "O=C(Nc1ccc(Cc2noc(C(F)(F)F)n2)cc1)c1ccncc1", "note": "[Compound 5, N-(4-((5-(trifluoromethyl)-1,2,4-oxadiazol-3-yl)methyl)phenyl)isonicotinamide]", "pest or weed control at 500 ppm": "> 70"},
      {"smiles": "O=C(Cc1ccccc1)Nc1ccc(Cc2noc(C(F)(F)F)n2)cc1", "note": "[Compound 6, 2-phenyl-N-(4-((5-(trifluoromethyl)-1,2,4-oxadiazol-3-yl)methyl)phenyl)acetamide]", "pest or weed control at 500 ppm": "> 70"},
      {"smiles": "O=C(Nc1ccc(Cc2noc(C(F)(F)F)n2)cc1)c1ccc(C(F)(F)F)cc1", "note": "[Compound 8, 4-(trifluoromethyl)-N-(4-((5-(trifluoromethyl)-1,2,4-oxadiazol-3-yl)methyl)phenyl)benzamide]", "pest or weed control at 500 ppm": "> 70"},
      {"smiles": "O=C(Nc1ccc(Cc2noc(C(F)(F)F)n2)cc1)c1ccc(F)cc1", "note": "[Compound 9, 4-fluoro-N-(4-((5-(trifluoromethyl)-1,2,4-oxadiazol-3-yl)methyl)phenyl)benzamide]", "pest or weed control at 500 ppm": "> 70"},
      {"smiles": "O=C(Nc1ccc(Cc2noc(C(F)(F)F)n2)cc1)c1ccc(Cl)cc1", "note": "[Compound 10, 4-chloro-N-(4-((5-(trifluoromethyl)-1,2,4-oxadiazol-3-yl)methyl)phenyl)benzamide]", "pest or weed control at 500 ppm": "> 70"},
      {"smiles": "O=C(NCc1ccc(F)cc1)c1ccc(Cc2noc(C(F)(F)F)n2)cc1", "note": "[Compound 12, N-(4-fluorobenzyl)-4-((5-(trifluoromethyl)-1,2,4-oxadiazol-3-yl)methyl)benzamide]", "pest or weed control at 500 ppm": "> 70"},
      {"smiles": "O=C(c1ccc(Cc2noc(C(F)(F)F)n2)cc1)N1CCOCC1", "note": "[Compound 13, morpholino(4-((5-(trifluoromethyl)-1,2,4-oxadiazol-3-yl)methyl)phenyl)methanone]", "pest or weed control at 500 ppm": "> 70"},
      {"smiles": "COc1ccc(Cl)c(NC(=O)c2ccc(Cc3noc(C(F)(F)F)n3)cc2)c1", "note": "[Compound 18, N-(2-chloro-5-methoxyphenyl)-4-((5-(trifluoromethyl)-1,2,4-oxadiazol-3-yl)methyl)benzamide]", "pest or weed control at 500 ppm": "> 70"},
      {"smiles": "O=C(Nc1ccc(C(=O)c2noc(C(F)(F)F)n2)cc1)c1ccncc1", "note": "[Compound 27, N-(4-(5-(trifluoromethyl)-1,2,4-oxadiazole-3-carbonyl)phenyl)isonicotinamide]", "pest or weed control at 500 ppm": "> 70"},
      {"smiles": "CC(C)(C)OC(=O)Nc1ccc(C(=O)c2noc(C(F)(F)F)n2)cc1", "note": "[Compound 29, tert-butyl (4-(5-(trifluoromethyl)-1,2,4-oxadiazole-3-carbonyl)phenyl)carbamate]", "pest or weed control at 500 ppm": "> 70"},
      {"smiles": "CC(C)(C)OC(=O)Nc1ccc(C(F)(F)c2noc(C(F)(F)F)n2)cc1", "note": "[Compound 30, tert-butyl (4-(difluoro(5-(trifluoromethyl)-1,2,4-oxadiazol-3-yl)methyl)phenyl)carbamate]", "pest or weed control at 500 ppm": "> 70"},
      {"smiles": "Cc1ccc(C(=O)Nc2ccc(C(F)(F)c3noc(C(F)(F)F)n3)cc2)cc1", "note": "[Compound 38, N-(4-(difluoro(5-(trifluoromethyl)-1,2,4-oxadiazol-3-yl)methyl)phenyl)-4-methylbenzamide]", "pest or weed control at 500 ppm": "> 70"},
      {"smiles": "CNC(=O)c1ccc(Cc2noc(C(F)(F)F)n2)cc1", "note": "[Compound 40, N-methyl-4-((5-(trifluoromethyl)-1,2,4-oxadiazol-3-yl)methyl)benzamide]", "pest or weed control at 500 ppm": "> 70"},
      {"smiles": "COCCNC(=O)c1ccc(Cc2noc(C(F)(F)F)n2)cc1", "note": "[Compound 42, N-(2-methoxyethyl)-4-((5-(trifluoromethyl)-1,2,4-oxadiazol-3-yl)methyl)benzamide]", "pest or weed control at 500 ppm": "> 70"},
      {"smiles": "O=C(c1ccc(Cc2noc(C(F)(F)F)n2)cc1)N1CCCC1", "note": "[Compound 45, pyrrolidin-1-yl(4-((5-(trifluoromethyl)-1,2,4-oxadiazol-3-yl)methyl)phenyl)methanone]", "pest or weed control at 500 ppm": "> 70"},
      {"smiles": "COCCN(C)C(=O)c1ccc(Cc2noc(C(F)(F)F)n2)cc1", "note": "[Compound 46, N-(2-methoxyethyl)-N-methyl-4-((5-(trifluoromethyl)-1,2,4-oxadiazol-3-yl)methyl)benzamide]", "pest or weed control at 500 ppm": "> 70"},
      {"smiles": "O=C(NCC1CC1)c1ccc(Cc2noc(C(F)(F)F)n2)cc1", "note": "[Compound 47, N-(cyclopropylmethyl)-4-((5-(trifluoromethyl)-1,2,4-oxadiazol-3-yl)methyl)benzamide]", "pest or weed control at 500 ppm": "> 70"},
      {"smiles": "CCN(C)C(=O)c1ccc(Cc2noc(C(F)(F)F)n2)cc1", "note": "[Compound 48, N-ethyl-N-methyl-4-((5-(trifluoromethyl)-1,2,4-oxadiazol-3-yl)methyl)benzamide]", "pest or weed control at 500 ppm": "> 70"},
      {"smiles": "C=CCN(C)C(=O)c1ccc(Cc2noc(C(F)(F)F)n2)cc1", "note": "[Compound 49, N-allyl-N-methyl-4-((5-(trifluoromethyl)-1,2,4-oxadiazol-3-yl)methyl)benzamide]", "pest or weed control at 500 ppm": "> 70"},
      {"smiles": "C#CCNC(=O)c1ccc(Cc2noc(C(F)(F)F)n2)cc1", "note": "[Compound 50, N-(prop-2-yn-1-yl)-4-((5-(trifluoromethyl)-1,2,4-oxadiazol-3-yl)methyl)benzamide]", "pest or weed control at 500 ppm": "> 70"},
      {"smiles": "Fc1ccc(NC(=S)c2ccc(Cc3noc(C(F)(F)F)n3)cc2)cc1", "note": "[Compound 67, N-(4-fluorophenyl)-4-((5-(trifluoromethyl)-1,2,4-oxadiazol-3-yl)methyl)benzothioamide]", "pest or weed control at 500 ppm": "> 70"},
      {"smiles": "O=S(=O)(Nc1ccc(Cc2noc(C(F)(F)F)n2)cc1)c1ccccc1", "note": "[Compound 68, N-(4-((5-(trifluoromethyl)-1,2,4-oxadiazol-3-yl)methyl)phenyl)benzenesulfonamide]", "pest or weed control at 500 ppm": "> 70"}
    ]},
    {"system": "Alternaria solani", "experiment": "Alternaria solani (early blight of tomato/potato) in vitro radial growth test on Potato Dextrose Agar", "format": "cell-based", "settings": "168 h, radial growth after seven days at 25° C., 60% relative humidity, read-out: control compared to the untreated check", "units": {"inhibition of growth at 300 ppm": "%"}, "values": [
      {"smiles": "O=C(Cc1ccccc1)Nc1ccc(Cc2noc(C(F)(F)F)n2)cc1", "note": "[Compound 6, 2-phenyl-N-(4-((5-(trifluoromethyl)-1,2,4-oxadiazol-3-yl)methyl)phenyl)acetamide]", "inhibition of growth at 300 ppm": "> 70"},
      {"smiles": "O=C(NCc1ccc(F)cc1)c1ccc(Cc2noc(C(F)(F)F)n2)cc1", "note": "[Compound 12, N-(4-fluorobenzyl)-4-((5-(trifluoromethyl)-1,2,4-oxadiazol-3-yl)methyl)benzamide]", "inhibition of growth at 300 ppm": "> 70"},
      {"smiles": "Cc1ccc(C(C)NC(=O)c2ccc(Cc3noc(C(F)(F)F)n3)cc2)cc1", "note": "(stereo not drawn) [Compound 15, N-(1-(p-tolyl)ethyl)-4-((5-(trifluoromethyl)-1,2,4-oxadiazol-3-yl)methyl)benzamide]", "inhibition of growth at 300 ppm": "> 70"},
      {"smiles": "O=C(NCc1cccnc1)c1ccc(Cc2noc(C(F)(F)F)n2)cc1", "note": "[Compound 16, N-(pyridin-3-ylmethyl)-4-((5-(trifluoromethyl)-1,2,4-oxadiazol-3-yl)methyl)benzamide]", "inhibition of growth at 300 ppm": "> 70"},
      {"smiles": "O=C(Nc1cncc(Cl)c1)c1ccc(Cc2noc(C(F)(F)F)n2)cc1", "note": "[Compound 17, N-(5-chloropyridin-3-yl)-4-((5-(trifluoromethyl)-1,2,4-oxadiazol-3-yl)methyl)benzamide]", "inhibition of growth at 300 ppm": "> 70"},
      {"smiles": "COc1ccccc1NC(=O)c1ccc(Cc2noc(C(F)(F)F)n2)cc1", "note": "[Compound 19, N-(2-methoxyphenyl)-4-((5-(trifluoromethyl)-1,2,4-oxadiazol-3-yl)methyl)benzamide]", "inhibition of growth at 300 ppm": "> 70"},
      {"smiles": "O=C(NCCN1CCOCC1)c1ccc(Cc2noc(C(F)(F)F)n2)cc1", "note": "[Compound 21, N-(2-morpholinoethyl)-4-((5-(trifluoromethyl)-1,2,4-oxadiazol-3-yl)methyl)benzamide]", "inhibition of growth at 300 ppm": "> 70"},
      {"smiles": "O=C(Nc1cccc(Cl)c1)c1ccc(Cc2noc(C(F)(F)F)n2)cc1", "note": "[Compound 55, N-(3-chlorophenyl)-4-((5-(trifluoromethyl)-1,2,4-oxadiazol-3-yl)methyl)benzamide]", "inhibition of growth at 300 ppm": "> 70"},
      {"smiles": "Cc1cccc(NC(=S)c2ccc(Cc3noc(C(F)(F)F)n3)cc2)c1", "note": "[Compound 64, N-(m-tolyl)-4-((5-(trifluoromethyl)-1,2,4-oxadiazol-3-yl)methyl)benzothioamide]", "inhibition of growth at 300 ppm": "> 70"}
    ]},
    {"system": "Colletotrichum capsici", "experiment": "Colletotrichum capsici (anthracnose) in vitro radial growth test on Potato Dextrose Agar", "format": "cell-based", "settings": "300 ppm; radial growth after seven days at 25° C., 60% relative humidity", "units": {"control compared to the untreated check": "%"}, "values": [
      {"smiles": "O=C(Cc1ccccc1)Nc1ccc(Cc2noc(C(F)(F)F)n2)cc1", "note": "[Compound 6, 2-phenyl-N-(4-((5-(trifluoromethyl)-1,2,4-oxadiazol-3-yl)methyl)phenyl)acetamide]", "control compared to the untreated check": "> 70"}
    ]}
  ]
}
